Measurements: the Kinase Knowledgebase extract (Sharma et al. 2016)

Key:
Experiment in all cases: Enzyme Assay
MAPK14 (human) = MAPK14 (human) (UniProt Q16539)
CDK2 (human) = CDK2 (human) (UniProt P24941)
PIK3CA (human) = PIK3CA (human) (UniProt P42336)
PIK3CG (human) = PIK3CG (human) (UniProt P48736)
Sequence of PIK3CG (human) (P48736 whole entry, looked up): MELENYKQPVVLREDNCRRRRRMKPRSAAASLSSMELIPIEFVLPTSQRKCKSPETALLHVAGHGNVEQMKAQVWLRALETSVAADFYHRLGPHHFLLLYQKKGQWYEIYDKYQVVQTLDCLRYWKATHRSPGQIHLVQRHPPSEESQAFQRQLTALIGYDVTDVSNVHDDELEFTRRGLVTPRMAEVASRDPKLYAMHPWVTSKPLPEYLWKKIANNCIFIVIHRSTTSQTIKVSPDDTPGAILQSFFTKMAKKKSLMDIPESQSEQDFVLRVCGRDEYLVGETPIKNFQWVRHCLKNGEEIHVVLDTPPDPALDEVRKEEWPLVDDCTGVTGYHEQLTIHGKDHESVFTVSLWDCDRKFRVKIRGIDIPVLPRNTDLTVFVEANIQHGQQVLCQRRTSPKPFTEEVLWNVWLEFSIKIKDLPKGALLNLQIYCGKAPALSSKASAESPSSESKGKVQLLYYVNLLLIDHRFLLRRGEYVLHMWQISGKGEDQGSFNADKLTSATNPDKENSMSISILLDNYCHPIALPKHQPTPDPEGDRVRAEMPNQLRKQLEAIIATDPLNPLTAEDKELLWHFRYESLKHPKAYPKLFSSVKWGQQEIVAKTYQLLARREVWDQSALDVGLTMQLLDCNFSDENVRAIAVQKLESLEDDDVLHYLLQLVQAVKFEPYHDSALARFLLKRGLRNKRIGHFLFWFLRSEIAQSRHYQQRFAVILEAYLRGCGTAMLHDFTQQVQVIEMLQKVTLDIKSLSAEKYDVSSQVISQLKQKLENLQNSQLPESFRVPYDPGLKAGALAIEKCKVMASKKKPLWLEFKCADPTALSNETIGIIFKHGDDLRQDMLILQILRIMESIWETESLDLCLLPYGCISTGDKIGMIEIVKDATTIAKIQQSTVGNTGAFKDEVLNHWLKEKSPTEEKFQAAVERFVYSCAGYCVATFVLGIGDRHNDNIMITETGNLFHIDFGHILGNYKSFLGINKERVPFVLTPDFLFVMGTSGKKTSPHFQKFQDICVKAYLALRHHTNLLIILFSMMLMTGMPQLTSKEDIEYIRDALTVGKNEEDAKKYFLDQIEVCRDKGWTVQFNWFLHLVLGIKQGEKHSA

Sequence of MAPK14 (human) (Q16539 whole entry, looked up): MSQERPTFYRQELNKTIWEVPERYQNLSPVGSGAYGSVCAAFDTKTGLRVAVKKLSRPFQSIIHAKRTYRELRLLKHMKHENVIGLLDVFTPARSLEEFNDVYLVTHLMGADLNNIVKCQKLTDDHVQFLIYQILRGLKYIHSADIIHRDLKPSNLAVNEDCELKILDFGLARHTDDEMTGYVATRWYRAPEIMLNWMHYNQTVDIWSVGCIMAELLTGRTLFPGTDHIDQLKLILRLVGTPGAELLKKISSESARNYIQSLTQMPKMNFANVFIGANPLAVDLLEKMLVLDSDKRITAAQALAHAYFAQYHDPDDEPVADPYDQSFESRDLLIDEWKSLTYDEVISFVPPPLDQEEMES
Sequence of PIK3CA (human) (P42336 whole entry, looked up): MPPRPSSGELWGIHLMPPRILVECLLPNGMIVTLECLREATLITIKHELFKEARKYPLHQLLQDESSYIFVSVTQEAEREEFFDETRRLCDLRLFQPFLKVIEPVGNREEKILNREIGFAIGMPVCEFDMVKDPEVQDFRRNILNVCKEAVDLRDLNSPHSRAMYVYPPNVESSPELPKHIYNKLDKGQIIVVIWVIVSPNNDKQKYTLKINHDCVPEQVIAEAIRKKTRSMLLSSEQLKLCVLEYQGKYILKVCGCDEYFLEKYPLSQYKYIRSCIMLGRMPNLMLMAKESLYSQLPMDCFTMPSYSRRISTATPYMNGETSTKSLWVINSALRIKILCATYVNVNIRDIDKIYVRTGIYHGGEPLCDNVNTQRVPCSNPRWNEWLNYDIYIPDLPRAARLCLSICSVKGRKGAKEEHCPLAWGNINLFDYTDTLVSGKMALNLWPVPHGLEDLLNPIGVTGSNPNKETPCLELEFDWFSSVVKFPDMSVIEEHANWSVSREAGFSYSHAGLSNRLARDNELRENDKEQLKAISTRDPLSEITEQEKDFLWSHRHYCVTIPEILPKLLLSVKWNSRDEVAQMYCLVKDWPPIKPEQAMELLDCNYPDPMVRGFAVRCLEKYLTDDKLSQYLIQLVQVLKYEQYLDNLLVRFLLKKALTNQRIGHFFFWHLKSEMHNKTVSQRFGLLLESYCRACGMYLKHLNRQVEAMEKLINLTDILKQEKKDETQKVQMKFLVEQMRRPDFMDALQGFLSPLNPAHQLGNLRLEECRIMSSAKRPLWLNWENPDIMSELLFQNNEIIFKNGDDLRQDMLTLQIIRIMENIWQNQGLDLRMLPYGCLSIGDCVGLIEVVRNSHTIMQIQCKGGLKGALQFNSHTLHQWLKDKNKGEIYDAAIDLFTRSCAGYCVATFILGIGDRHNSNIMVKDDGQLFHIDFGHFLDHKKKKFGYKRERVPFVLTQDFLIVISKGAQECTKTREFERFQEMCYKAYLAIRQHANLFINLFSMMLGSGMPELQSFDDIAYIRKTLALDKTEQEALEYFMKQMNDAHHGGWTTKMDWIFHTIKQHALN

SMILES | IC50 (MAPK14 (human)) [µM] | IC50 (CDK2 (human)) [µM] | IC50 (PIK3CA (human)) [µM] | IC50 (PIK3CG (human)) [µM]
COCCOc1cc2ncc3c4ccc(C#N)cc4[nH]c3c2cc1OC | > 45.6 | 1.21 | – | –
COc1cc2c(cc1OCCN(C)C)ncc1c3ccc(C#N)cc3[nH]c21 | > 49.4 | 1.01 | – | –
COc1cc2c(cc1OC1CCN(C)CC1)ncc1c3ccc(C#N)cc3[nH]c21 | 6.82 | 5.7 | – | –
COc1cc2ncc3c4ccc(C#N)cc4[nH]c3c2cc1OC | > 88.8 | 0.599 | 1.7 | 3.4
COc1cc2c(cc1OCCCN(C)C)ncc1c3ccc(C#N)cc3[nH]c21 | > 36.2 | 4.35 | > 7.25 | > 7.25
COc1cc2c(cc1OCC1CCCCN1C)ncc1c3ccc(C#N)cc3[nH]c21 (stereo not drawn) | > 50 | 1.1 | – | –
COc1cc2c(cc1OCCCN1CCN(C)CC1)ncc1c3ccc(C#N)cc3[nH]c21 | > 47 | 0.479 | – | –
